Columns and labels:
[1] = 40 mg single daily dose; cited from earlier work
human CDK9 kinase = biological target: T1, human CDK9 kinase (Homo sapiens, UniProt P50750); assay: Human CDK9 kinase in vitro inhibition assay (Cerep, LANCE); type: biochemical; conditions: human recombinant enzyme, 10 µM ATP
T1 construct: purchased Cerep (CRO that ran the assay) 2912 (781-cdk9); host or cells: Sf9 cells
Source text: (§1) Rucaparib, veliparib and olaparib were purchased from Selleckchem. Kinase in vitro assays were perfomed at Cerep (www.cerep.fr) by measuring the phosphorylation of appropriate peptide substrates by human recombinant enzymes and using FRET as a detection method (a detailed description of each kinase assay is available in online supplementary data).
Human CDK9 kinase in vitro inhibition assay
All details for the CDK9 in vitro assay can be consulted in the Cerep Catalogue available online under references 2912 (781-cdk9): http://www.cerep.fr/cerep/users/pages/catalog/Affiche_CondExp_Test.asp?test=2912 Evaluation of the effects of compounds on the activity of the human CDK9 quantified by measuring the phosphorylation of the substrate Ulight- […]
mixture is incubated for 90 min at room temperature. […] After 60 more min, the fluorescence transfer is measured at λex=337 nm, λem=620 nm and λem=665 nm using a microplate reader (Envision, Perkin Elmer). The enzyme activity is determined by dividing the signal measured at λem=665 nm by that measured at λem=620 nm (ratio). The results are expressed as a percent inhibition of the control enzyme activity. The standard inhibitory reference compound is staurosporine, which is tested in each experiment at several concentrations to obtain an inhibition curve from which its IC50 value is calculated. […]

human ALK kinase = biological target: T2, human ALK kinase (Homo sapiens, UniProt Q9UM73); assay: Human ALK kinase in vitro inhibition assay (Cerep, LANCE); type: biochemical; conditions: human recombinant enzyme, 10 µM ATP
T2 construct: purchased Cerep (CRO that ran the assay) 2678 (768-alk)
T2 sequence (Q9UM73 19-1620): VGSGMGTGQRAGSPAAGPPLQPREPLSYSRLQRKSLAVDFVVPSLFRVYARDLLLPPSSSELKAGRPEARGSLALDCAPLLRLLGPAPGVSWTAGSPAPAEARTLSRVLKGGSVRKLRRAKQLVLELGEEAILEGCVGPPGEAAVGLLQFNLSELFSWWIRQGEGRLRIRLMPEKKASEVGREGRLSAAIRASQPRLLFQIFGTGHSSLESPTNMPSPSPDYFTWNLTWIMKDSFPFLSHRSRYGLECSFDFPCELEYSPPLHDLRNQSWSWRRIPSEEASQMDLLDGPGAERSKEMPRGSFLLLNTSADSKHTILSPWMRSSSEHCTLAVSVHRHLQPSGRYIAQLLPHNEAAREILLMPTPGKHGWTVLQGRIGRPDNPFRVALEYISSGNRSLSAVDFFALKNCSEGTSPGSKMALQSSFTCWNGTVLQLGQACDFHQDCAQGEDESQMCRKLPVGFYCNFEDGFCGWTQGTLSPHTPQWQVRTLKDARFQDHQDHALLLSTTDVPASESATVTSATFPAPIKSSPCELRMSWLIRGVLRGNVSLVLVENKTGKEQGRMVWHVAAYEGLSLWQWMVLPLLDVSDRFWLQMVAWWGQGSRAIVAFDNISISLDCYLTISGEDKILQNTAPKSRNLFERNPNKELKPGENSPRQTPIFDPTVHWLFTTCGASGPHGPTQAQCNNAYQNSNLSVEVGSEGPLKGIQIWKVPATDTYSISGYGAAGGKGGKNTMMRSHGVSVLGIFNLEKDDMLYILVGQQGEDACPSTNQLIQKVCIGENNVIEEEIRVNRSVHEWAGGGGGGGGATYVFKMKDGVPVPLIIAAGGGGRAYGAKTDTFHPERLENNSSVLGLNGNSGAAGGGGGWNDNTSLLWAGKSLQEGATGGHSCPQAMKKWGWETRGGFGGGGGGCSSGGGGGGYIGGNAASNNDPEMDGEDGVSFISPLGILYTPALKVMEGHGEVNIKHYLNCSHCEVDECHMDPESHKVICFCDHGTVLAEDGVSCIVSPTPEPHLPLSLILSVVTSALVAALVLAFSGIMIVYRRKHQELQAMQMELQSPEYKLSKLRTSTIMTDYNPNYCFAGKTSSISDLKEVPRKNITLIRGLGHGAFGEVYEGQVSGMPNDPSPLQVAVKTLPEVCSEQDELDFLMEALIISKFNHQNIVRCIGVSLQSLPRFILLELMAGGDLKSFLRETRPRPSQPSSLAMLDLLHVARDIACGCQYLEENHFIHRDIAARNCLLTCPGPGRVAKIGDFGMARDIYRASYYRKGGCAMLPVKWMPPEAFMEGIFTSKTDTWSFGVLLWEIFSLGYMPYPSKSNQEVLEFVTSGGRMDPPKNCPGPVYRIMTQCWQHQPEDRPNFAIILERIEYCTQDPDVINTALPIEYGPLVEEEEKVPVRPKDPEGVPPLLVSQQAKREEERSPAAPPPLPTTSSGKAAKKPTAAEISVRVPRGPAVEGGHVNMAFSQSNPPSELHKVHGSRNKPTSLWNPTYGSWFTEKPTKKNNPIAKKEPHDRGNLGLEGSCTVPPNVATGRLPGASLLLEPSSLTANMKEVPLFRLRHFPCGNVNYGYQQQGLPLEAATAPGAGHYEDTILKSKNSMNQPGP
Source text: as §1
Human CDC7 kinase in vitro inhibition assay
All details for the CDC7 in vitro assay can be consulted in the Cerep Catalogue available online under references 2764 (749-cdc7): […]
http://www.cerep.fr/cerep/users/pages/catalog/Affiche_CondExp_Test.asp?test=2764 Evaluation of the effects of compounds on the activity of the human CDC7/ASK quantified by measuring the phosphorylation of the substrate […]
Ulight-[…] […]
labeled with europium chelate is added. After 60 more min, the fluorescence transfer is measured at λex=337 nm, λem=620 nm and λem=665 nm using a microplate reader (Envision, Perkin Elmer). The enzyme activity is determined by dividing the signal measured at λem=665 nm by that measured at λem=620 nm (ratio). The results are expressed as a percent inhibition of the control enzyme activity. […]
ALK quantified by measuring the phosphorylation of the substrate Ulight- […]
europium chelate is added. After 60 more min, the fluorescence transfer is measured at […]
λex=337 nm, λem=620 nm and λem=665 nm using a microplate reader (Envision, […]

T1 sequence (P50750 whole entry): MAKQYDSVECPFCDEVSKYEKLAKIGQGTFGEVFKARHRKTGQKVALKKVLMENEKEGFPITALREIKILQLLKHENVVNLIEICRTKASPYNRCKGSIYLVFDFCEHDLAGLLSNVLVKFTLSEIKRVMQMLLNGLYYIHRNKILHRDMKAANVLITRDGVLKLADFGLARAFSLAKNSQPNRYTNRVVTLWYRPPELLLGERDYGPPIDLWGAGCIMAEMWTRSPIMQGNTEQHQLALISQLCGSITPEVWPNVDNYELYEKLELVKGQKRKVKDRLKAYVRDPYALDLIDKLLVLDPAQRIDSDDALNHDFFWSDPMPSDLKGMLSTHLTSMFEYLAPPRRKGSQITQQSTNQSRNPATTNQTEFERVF
T1 sequence (O60563 whole entry partner): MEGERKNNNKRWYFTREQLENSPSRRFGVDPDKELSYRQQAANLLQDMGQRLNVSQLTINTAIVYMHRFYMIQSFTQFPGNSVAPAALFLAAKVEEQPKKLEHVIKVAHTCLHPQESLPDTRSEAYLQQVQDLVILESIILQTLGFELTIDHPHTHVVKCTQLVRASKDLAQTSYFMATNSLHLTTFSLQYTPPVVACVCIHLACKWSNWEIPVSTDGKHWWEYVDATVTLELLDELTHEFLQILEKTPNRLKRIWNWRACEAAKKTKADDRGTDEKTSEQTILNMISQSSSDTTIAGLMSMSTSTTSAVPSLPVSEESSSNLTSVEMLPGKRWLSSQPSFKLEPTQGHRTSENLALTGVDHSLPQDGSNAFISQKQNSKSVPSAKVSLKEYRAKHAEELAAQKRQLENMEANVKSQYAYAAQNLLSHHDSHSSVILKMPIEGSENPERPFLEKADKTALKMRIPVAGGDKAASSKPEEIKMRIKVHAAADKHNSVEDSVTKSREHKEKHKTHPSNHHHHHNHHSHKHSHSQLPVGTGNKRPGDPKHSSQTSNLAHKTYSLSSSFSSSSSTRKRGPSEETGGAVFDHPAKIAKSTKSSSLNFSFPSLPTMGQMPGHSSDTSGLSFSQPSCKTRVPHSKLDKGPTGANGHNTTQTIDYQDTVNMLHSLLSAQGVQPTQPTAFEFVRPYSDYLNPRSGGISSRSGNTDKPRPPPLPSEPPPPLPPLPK

IC50 (human CDK9 kinase): 2.7 µM
IC50 (human ALK kinase): 18 µM
SMILES: CNCc1ccc(-c2[nH]c3cc(F)cc4c3c2CCNC4=O)cc1 [rucaparib]
highest peak plasma concentration [1]: around 2 µM
